Reference: PubChem BioAssay AID248 (DTP/NCI, 2004)
Several values for one entry are separate records, joined by “and”; a condition that tells them apart may be missing. Equal values may be shown once. Toxic doses and inconclusive results are not listed. Rule as the data show it: active = T/C of 150% or more; inactive = T/C below 125%.

Tested on: L1210 leukemia ip in BDF1 mice, survival T/C
Assay: NCI In Vivo Anticancer Drug Screen. Data for tumor model L1210 Leukemia (intraperitoneal) in B6D2F1 (BDF1) mice
Settings: endpoint: mean survival time, higher = longer survival
How it was run: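 Ratio derived from survival: compound-dosed mice over vehicle-dosed mice, all bearing a transplantable tumor.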

[1] = dose: 100.0 mg/kg/injection, schedule: Q04DX002 (ip), vehicle: saline with Tween-80
[2] = dose: 100.0 mg/kg/injection, schedule: Q04DX003 (ip), vehicle: saline with Tween-80
[3] = dose: 200.0 mg/kg/injection, schedule: Q04DX002 (ip), vehicle: saline with Tween-80
[4] = dose: 200.0 mg/kg/injection, schedule: Q04DX003 (ip), vehicle: saline with Tween-80
[5] = dose: 400.0 mg/kg/injection, schedule: Q04DX002 (ip), vehicle: saline with Tween-80
[6] = dose: 400.0 mg/kg/injection, schedule: Q04DX003 (ip), vehicle: saline with Tween-80
[7] = dose: 25.0 mg/kg/injection, schedule: Q01DX009 (ip), vehicle: saline
[8] = dose: 50.0 mg/kg/injection, schedule: Q01DX009 (ip), vehicle: saline
[9] = dose: 100.0 mg/kg/injection, schedule: Q01DX009 (ip), vehicle: saline
[10] = dose: 100.0 mg/kg/injection, schedule: Q04DX002 (ip), vehicle: saline
[11] = dose: 50.0 mg/kg/injection, schedule: Q01DX001 (ip), vehicle: carboxymethylcellulose (CMC)
[12] = dose: 100.0 mg/kg/injection, schedule: Q01DX001 (ip), vehicle: Klucel (hydroxypropylcellulose) (HPC)
[13] = dose: 200.0 mg/kg/injection, schedule: Q01DX001 (ip), vehicle: Klucel (hydroxypropylcellulose) (HPC)
[14] = dose: 400.0 mg/kg/injection, schedule: Q01DX001 (ip), vehicle: Klucel (hydroxypropylcellulose) (HPC)
[15] = dose: 200.0 mg/kg/injection, schedule: Q01DX009 (ip), vehicle: saline
[16] = dose: 100.0 mg/kg/injection, schedule: Q01DX001 (ip), vehicle: saline
[17] = dose: 200.0 mg/kg/injection, schedule: Q01DX001 (ip), vehicle: saline
[18] = dose: 400.0 mg/kg/injection, schedule: Q01DX001 (ip), vehicle: saline
[19] = dose: 12.5 mg/kg/injection, schedule: Q01DX009 (ip), vehicle: saline

Measured: T/C

CON(C)CCOC(=O)c1ccc(N)cc1
inactive: dose: 50.0 mg/kg/injection, schedule: Q04DX002 (ip), vehicle: saline with Tween-80 104 % of control | [1] 107 % of control | [2] 89 % of control | [3] 104 % of control | [4] 95 % of control | [5] 104 % of control | [6] 99 % of control

CC12CC3CC(C)(C1)CC(OCCN)(C3)C2
inactive: [7] 94 % of control | dose: 25.0 mg/kg/injection, schedule: Q04DX002 (ip), vehicle: saline 98 % of control | [8] 108 % of control | dose: 50.0 mg/kg/injection, schedule: Q04DX002 (ip), vehicle: saline 98 % of control | [9] 92 % of control | [10] 110 % of control and 117 % of control

CCN1CCCC(SC(=O)C(O)(c2ccccc2)c2ccccc2)C1 (stereo unspecified)
inactive: dose: 75.0 mg/kg/injection, schedule: Q01DX001 (ip), vehicle: other 94 % of control | dose: 150.0 mg/kg/injection, schedule: Q01DX001 (ip), vehicle: other 94 % of control | dose: 300.0 mg/kg/injection, schedule: Q01DX001 (ip), vehicle: other 88 % of control

CSc1ccc(C(=O)CCl)c(C)c1
inactive: [11] 94 % of control

CCOC(=O)c1cc2c3n(c1=O)CCCC3C(c1ccncc1)OC2=O (stereo unspecified)
inactive: dose: 75.0 mg/kg/injection, schedule: Q04DX003 (ip), vehicle: saline 95 % of control | dose: 150.0 mg/kg/injection, schedule: Q04DX003 (ip), vehicle: saline 100 % of control | dose: 300.0 mg/kg/injection, schedule: Q04DX003 (ip), vehicle: saline 95 % of control

CC(NC(=O)OCc1ccccc1)C(=O)NCCC(N)=O (stereo unspecified)
inactive: dose: 100.0 mg/kg/injection, schedule: Q01DX009 (ip), vehicle: saline with Tween-80 91 % of control | dose: 200.0 mg/kg/injection, schedule: Q01DX009 (ip), vehicle: saline with Tween-80 88 % of control

CCN(CC)CCOc1ccc(C(C)(C)c2ccc(OCCN(CC)CC)cc2)cc1
inactive: [10] 108 % of control | dose: 200.0 mg/kg/injection, schedule: Q04DX002 (ip), vehicle: saline 108 % of control

CCCCOC(=O)c1ccc(OC(=O)Nc2cccc(Cl)c2)cc1
inactive: [12] 94 % of control | [13] 92 % of control | dose: 200.0 mg/kg/injection, schedule: Q01DX009 (ip), vehicle: Klucel (hydroxypropylcellulose) (HPC) 102 % of control | [14] 90 % of control

CCO/N=C1\C(C)(C)C(C)(C)C(C)(C)C1(C)SS(=O)(=O)O (stereo unspecified)
inactive: dose: 75.0 mg/kg/injection, schedule: Q04DX002 (ip), vehicle: saline 101 % of control | dose: 150.0 mg/kg/injection, schedule: Q04DX002 (ip), vehicle: saline 96 % of control | dose: 300.0 mg/kg/injection, schedule: Q04DX002 (ip), vehicle: saline 93 % of control

CC(C)CSC(C(O)C(O)C(O)CO)n1ccc(N)nc1=O (stereo unspecified)
inactive: dose: 100.0 mg/kg/injection, schedule: Q01DX005 (ip), vehicle: saline 90 % of control | dose: 200.0 mg/kg/injection, schedule: Q01DX005 (ip), vehicle: saline 98 % of control

CC1CC(C)/C(=N/N(C)C)C(C(O)CC2CC(=O)NC(=O)C2)C1 (stereo unspecified)
inactive: dose: 77.8 mg/kg/injection, schedule: Q01DX Z (ip), vehicle: carboxymethylcellulose (CMC) 106 % of control | dose: 116.7 mg/kg/injection, schedule: Q01DX Z (ip), vehicle: carboxymethylcellulose (CMC) 105 % of control | dose: 262.5 mg/kg/injection, schedule: Q01DX Z (ip), vehicle: carboxymethylcellulose (CMC) 119 % of control

Cc1nc(CON)cs1
inactive: [8] 92 % of control | dose: 100.0 mg/kg/injection, schedule: Q04DX003 (ip), vehicle: saline 100 % of control | [15] 90 % of control | dose: 200.0 mg/kg/injection, schedule: Q04DX003 (ip), vehicle: saline 92 % of control

CCCCCCCCCCCCn1cnc2c(N)ncnc21
inactive: dose: 12.5 mg/kg/injection, schedule: Q01DX005 (ip), vehicle: other 101 % of control | dose: 25.0 mg/kg/injection, schedule: Q01DX005 (ip), vehicle: other 96 % of control | dose: 50.0 mg/kg/injection, schedule: Q01DX005 (ip), vehicle: other 95 % of control | dose: 100.0 mg/kg/injection, schedule: Q01DX005 (ip), vehicle: other 96 % of control | dose: 200.0 mg/kg/injection, schedule: Q01DX005 (ip), vehicle: other 93 % of control

COC1(OC)C2C=CC1C1C(=O)CC1C(=O)C2 (stereo unspecified)
inactive: dose: 75.0 mg/kg/injection, schedule: Q01DX009 (ip), vehicle: Klucel (hydroxypropylcellulose) (HPC) 108 % of control | [12] 100 % of control | dose: 150.0 mg/kg/injection, schedule: Q01DX009 (ip), vehicle: Klucel (hydroxypropylcellulose) (HPC) 113 % of control | [13] 103 % of control | dose: 300.0 mg/kg/injection, schedule: Q01DX009 (ip), vehicle: Klucel (hydroxypropylcellulose) (HPC) 105 % of control | [14] 90 % of control

N#CS
inactive: [8] 102 % of control | [9] 95 % of control | [15] 98 % of control

Cc1ccc(S(=O)(=O)NC(C)(C)CNc2ncnc(Cl)c2N)cc1
inactive: dose: 9.5 mg/kg/injection, schedule: Q01DX001 (ip), vehicle: other 101 % of control | dose: 19.0 mg/kg/injection, schedule: Q01DX001 (ip), vehicle: other 96 % of control

CN1CSCSC1
inactive: [8] 104 % of control | [9] 98 % of control | [2] 101 % of control | [4] 100 % of control | [6] 97 % of control

O=C1CCCC/C1=C\c1cccc2ccccc12
inactive: [1] 103 % of control | [3] 96 % of control | [5] 88 % of control

Cc1c(C)c2cccc(C)c2[nH]c1=O
inactive: [16] 95 % of control | [17] 95 % of control | [18] 103 % of control

C=CCNCCN1CCN(CCCN2c3ccccc3Sc3ccc(C(F)(F)F)cc32)CC1
inactive: dose: 6.25 mg/kg/injection, schedule: Q04DX003 (ip), vehicle: saline 106 % of control | [19] 103 % of control | dose: 12.5 mg/kg/injection, schedule: Q04DX003 (ip), vehicle: saline 98 % of control | [7] 102 % of control | dose: 25.0 mg/kg/injection, schedule: Q04DX003 (ip), vehicle: saline 102 % of control | dose: 50.0 mg/kg/injection, schedule: Q04DX003 (ip), vehicle: saline 96 % of control

CCOC(=O)CC(C)=O.[Cu+2]
inactive: dose: 6.25 mg/kg/injection, schedule: Q01DX009 (ip), vehicle: saline 96 % of control | [19] 104 % of control | dose: 12.5 mg/kg/injection, schedule: Q04DX003 (ip), vehicle: Klucel (hydroxypropylcellulose) (HPC) 94 % of control | [7] 90 % of control | dose: 25.0 mg/kg/injection, schedule: Q04DX003 (ip), vehicle: Klucel (hydroxypropylcellulose) (HPC) 96 % of control

Nc1ncnc2c1ncn2C1COC(CO)C1O (stereo unspecified)
inactive: [16] 103 % of control | [17] 107 % of control | [18] 107 % of control

Fc1cc(N(CCCl)CCCl)ccc1CN1CCCN(Cc2ccc(N(CCCl)CCCl)cc2F)C1c1ccc(N(CCCl)CCCl)cc1F
inactive: [11] 100 % of control | dose: 100.0 mg/kg/injection, schedule: Q01DX001 (ip), vehicle: carboxymethylcellulose (CMC) 96 % of control | dose: 200.0 mg/kg/injection, schedule: Q01DX001 (ip), vehicle: carboxymethylcellulose (CMC) 102 % of control | dose: 400.0 mg/kg/injection, schedule: Q01DX001 (ip), vehicle: carboxymethylcellulose (CMC) 94 % of control

Oc1ccccc1C=NCCN=Cc1ccccc1O.[CH3][Sn]([CH3])([Cl])[Cl]
inactive: dose: 12.5 mg/kg/injection, schedule: Q01DX009 (ip), vehicle: saline with Tween-80 102 % of control | dose: 25.0 mg/kg/injection, schedule: Q01DX009 (ip), vehicle: saline with Tween-80 110 % of control | dose: 50.0 mg/kg/injection, schedule: Q01DX009 (ip), vehicle: saline with Tween-80 107 % of control

COc1ccc([N+](=O)[O-])c2c1CONC2(C)C(=O)O (stereo unspecified)
inactive: dose: 100.0 mg/kg/injection, schedule: Q04DX003 (ip), vehicle: acetone 98 % of control | dose: 200.0 mg/kg/injection, schedule: Q04DX003 (ip), vehicle: acetone 95 % of control | dose: 400.0 mg/kg/injection, schedule: Q04DX003 (ip), vehicle: acetone 98 % of control
